# Measurements reported in patent US6080758A, “Benzenesulfonamide derivatives as bradykinin antagonists” (Fournier Industrie et Sante, priority 1995, dated 2000).
# Target: T1, bradykinin B2 receptor (Cavia porcellus, UniProt O70526)
# T1 construct: Ileum segments are isolated from male guinea-pigs; tissue Iffa Credo, l'Arbresle, France (supplier of the animals); host or cells: ileum membranes of male Dunkin-Hartley guinea-pigs
# T1 sequence (O70526 1-372): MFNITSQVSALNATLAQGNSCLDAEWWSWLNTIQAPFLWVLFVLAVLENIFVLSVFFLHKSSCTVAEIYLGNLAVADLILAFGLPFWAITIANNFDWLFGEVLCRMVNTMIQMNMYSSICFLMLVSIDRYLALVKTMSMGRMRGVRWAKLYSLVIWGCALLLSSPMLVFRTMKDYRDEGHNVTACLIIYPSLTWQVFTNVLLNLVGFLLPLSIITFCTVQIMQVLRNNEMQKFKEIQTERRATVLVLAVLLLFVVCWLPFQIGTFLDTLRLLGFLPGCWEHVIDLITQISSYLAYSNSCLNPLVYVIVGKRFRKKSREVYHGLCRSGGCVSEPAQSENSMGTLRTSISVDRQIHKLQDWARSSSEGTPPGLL
# Experiment: [3H]-bradykinin binding to guinea-pig ileum membranes
# Conditions: test compound 10^-6 M, [3H]-bradykinin 120 pM, 90 min at 20° C., read-out: Activity (%): percentage inhibition of the binding of [3H]-bradykinin
# Procedure: We used the following pharmacological test: Ileum segments are isolated from male guinea-pigs of the Dunkin-Hartley strain (Iffa Credo, l'Arbresle, France) and ground in the following TES buffer: TES 25 mM, 1,10-phenanthroline 1 mM (pH 6.8), bacitracin 140 μg/ml, BSA 1 g/l. The membranes are then isolated by centrifugation (18,000 rpm; 20 min; 4° C.). The binding studies are carried out in the TES buffer using [^3 H]-bradykinin (120 pM) and 50 μg of membrane protein per test (final volume 500 μl) with an equilibrium time of 90 min at 20° C. The percentage inhibition of the binding of [^3 H]-bradykinin is then determined in the presence of one of the test compounds according to the invention at a concentration of 10^-6 M.
# The results obtained (indicated as "activity") from these tests are collated in Table I below with reference to the Examples given in the description.
row,SMILES,inhibition at 1 µM [%]
1,"COC(=O)C1CCCN1S(=O)(=O)c1ccc(Cl)c(COc2cccc3ccc(C)nc23)c1Cl (racemic) [Example 1, N-[[3-[(2-Methylquinolin-8-yl)oxymethyl]-2,4-dichlorophenyl]sulfonyl]-D,L-proline Methyl Ester]",97.8
2,"Cc1ccc2cccc(OCc3c(Cl)ccc(S(=O)(=O)N4CCCC4C(=O)OCCCN(C)C)c3Cl)c2n1 (racemic) [Example 11, N-[[3-[(2-Methylquinolin-8-yl)oxymethyl]-2,4-dichlorophenyl]sulfonyl]-D,L-proline 3-(dimethylamino)propyl Ester]",76.9
3,"COC(=O)[C@@H]1CCCN1S(=O)(=O)c1ccc(Cl)c(COc2cccc3ccc(C)nc23)c1Cl [Example 2, N-[[3-[(2-Methylquinolin-8-yl)oxymethyl]-2,4-dichlorophenyl]sulfonyl]-L-proline Methyl Ester]",98.6
4,"COCCNC(=O)C1CCCN1S(=O)(=O)c1ccc(Cl)c(COc2cccc3ccc(C)nc23)c1Cl (stereo not shown) [Example 4, 1-[[3-[(2-Methylquinolin-8-yl)oxymethyl]-2,4-dichlorophenyl]sulfonyl]-N-[2-methoxyethyl]-2-pyrrolidinecarboxamide]",92.6
5,"Cc1ccc2cccc(OCc3c(Cl)ccc(S(=O)(=O)N4CCCC4C(=O)NCCO)c3Cl)c2n1 (stereo not shown) [Example 5, 1-[[3-[(2-Methylquinolin-8-yl)oxymethyl]-2,4-dichlorophenyl]sulfonyl]-N-[2-hydroxyethyl]-2-pyrrolidinecarboxamide]",90.1
6,Cc1ccc2cccc(OCc3c(Cl)ccc(S(=O)(=O)N4CCCC4C(=O)NCCCO)c3Cl)c2n1 (stereo not shown) [Example 6],90.9
7,"Cc1ccc2cccc(OCc3c(Cl)ccc(S(=O)(=O)N4CCCC4C(=O)NCCCCCO)c3Cl)c2n1 (stereo not shown) [Example 7, 1-[[3-[(2-Methylquinolin-8-yl)oxymethyl]-2,4-dichlorophenyl]sulfonyl]-N-[5-hydroxypentyl]-2-pyrrolidinecarboxamide]",97.8
8,"Cc1ccc2cccc(OCc3c(Cl)ccc(S(=O)(=O)N4CCCC4C(=O)NCCN(C)C)c3Cl)c2n1 (stereo not shown) [Example 8, 1-[[3-[(2-Methylquinolin-8-yl)oxymethyl]-2,4-dichlorophenyl]sulfonyl]-N-[2-dimethylaminoethyl]-2-pyrrolidinecarboxamide Dihydrochioride]",95.5
9,"Cc1ccc2cccc(OCc3c(Cl)ccc(S(=O)(=O)N4CCCC4C(=O)NCCCN)c3Cl)c2n1 (stereo not shown) [Example 9, 1-[[3-[(2-Methylquinolin-8-yl)oxymethyl]-2,4-dichlorophenyl]sulfonyl]-N-[3-aminopropyl]-2-pyrrolidinecarboxamide]",97.6
10,"Cc1ccc2cccc(OCc3c(Cl)ccc(S(=O)(=O)N4CCCC4C(=O)NCc4ccccc4)c3Cl)c2n1 (stereo not shown) [Example 10, 1-[[3-[(2-Methylquinolin-8-yl)oxymethyl]-2,4-dichlorophenyl]sulfonyl]-N-[phenylmethyl]-2-pyrrolidinecarboxamide]",96.4
11,"CCNC(=O)[C@@H]1CCCN1S(=O)(=O)c1ccc(Cl)c(COc2cccc3ccc(C)nc23)c1Cl [Example 12, 1-[[3-[(2-Methylquinolin-8-yl)oxymethyl]-2,4-dichlorophenyl]sulfonyl]-N-ethyl-2-(S)-pyrrolidinecarboxamide]",98.5
12,"CC(=O)NC1CCN(S(=O)(=O)c2ccc(Cl)c(COc3cccc4ccc(C)nc34)c2Cl)C1 (stereo not shown) [Example 13, 3-[(1-Oxoethyl)amino]-1-[[3-[(2-methylquinolin-8-yl)oxymethyl]-2,4-dichlorophenyl]sulfonyl]pyrrolidine]",98.6
13,"Cc1ccc2cccc(OCc3c(Cl)ccc(S(=O)(=O)N4CCC(O)C4)c3Cl)c2n1 (stereo not shown) [Example 14, 3-Hydroxy-1-[[3-[(2-methylquinolin-8-yl)oxymethyl]-2,4-dichlorophenyl]-sulfonyl]pyrrolidine]",94
14,"Cc1ccc2cccc(OCc3c(Cl)ccc(S(=O)(=O)N4CCSC4)c3Cl)c2n1 [Example 15, 3-[[3-[(2-Methylquinolin-8-yl)oxymethyl]-2,4-dichlorophenyl]sulfonyl]-thiazolidine]",94.9
15,"Cc1ccc2cccc(OCc3c(Cl)ccc(S(=O)(=O)N4CCCC4)c3Cl)c2n1 [Example 16, 1-[[3-[(2-Methylquinolin-8-yl)oxymethyl]-2,4-dichlorophenyl]sulfonyl]-pyrrolidine]",90.1
16,"Cc1ccc2cccc(OCc3c(Cl)ccc(S(=O)(=O)n4cccc4)c3Cl)c2n1 [Example 17, 1-[[3-[(2-Methylquinolin-8-yl)oxymethyl]-2,4-dichlorophenyl]sulfonyl]pyrrole]",93.8
